Results published in ChEMBL document CHEMBL3885861, “Open TG-GATES”.

Species: Rattus norvegicus
Experiment: Open TG-GATES - Regimen: Single
Format: toxicity, organism-based, Sprague-Dawley
Design: regimen Single, gender Male, age 6 weeks
Settings: in vivo, po, 1000 mg/kg, route gavage, dose level High; for APTT / Bas / Eos / Fbg / Hb / Ht / Lym / MCH / MCHC / MCV / Mono / Neu / PT / Plat / RBC / Ret / WBC: tissue Blood; for KIDNEY_L / KIDNEY_R / KIDNEY_TOTAL: tissue Kidney; for LIVER: tissue Liver; for A/G / ALP / ALT / AST / BUN / CRE / Ca / Cl / DBIL / GLC / IP / LDH / Na / PL / RALB / TBIL / TC / TG / TP / gamma-GTP: tissue Plasma

Work on `NC(N)=Nc1nc(CSCCC(N)=NS(N)(=O)=O)cs1` [FAMOTIDINE] yielded a TERMINAL_BW (3 h) of 216.4 g, an APTT (3 h) of 18.8 s and a Bas (3 h) of 0%. The Eos (3 h) was 1%, the Fbg (3 h) was 209.8 mg/dL and the Hb (3 h) was 12.9 g/dL. The Ht (3 h) was 37.1%, the Lym (3 h) was 80.8% and the MCH (3 h) was 20.8 pg. It also gave an MCHC (3 h) of 34.8%, an MCV (3 h) of 59.8 fL and a Mono (3 h) of 2.8%. The Neu (3 h) was 14%, the PT (3 h) was 12.6 s and the Plat (3 h) was 124.2 x10_4/uL. It also gave an RBC (3 h) of 620.2 x10_4/ul, a Ret (3 h) of 7.6% and a WBC (3 h) of 90.8 x10_2/uL. For the same compound, the KIDNEY_L (3 h) was 1 g, the KIDNEY_R (3 h) was 1 g and the KIDNEY_TOTAL (3 h) was 1.9 g. The LIVER (3 h) was 10.2 g, the A/G (3 h) was 1.6 and the ALP (3 h) was 873.2 IU/L. For the same compound, the ALT (3 h) was 35.6 IU/L, the AST (3 h) was 66.6 IU/L and the BUN (3 h) was 9.4 mg/dL. For the same compound, the CRE (3 h) was 0.4 mg/dL, the Ca (3 h) was 10.7 mg/dL and the Cl (3 h) was 103.4 meq/L. The DBIL (3 h) was 0.07 mg/dL, the GLC (3 h) was 194.4 mg/dL and the IP (3 h) was 9 mg/dL. For the same compound, the LDH (3 h) was 188.8 IU/L, the Na (3 h) was 140 meq/L and the PL (3 h) was 149.4 mg/dL. It also gave an RALB (3 h) of 3.3 g/dL, a TBIL (3 h) of 0.1 mg/dL and a TC (3 h) of 81.2 mg/dL. It also gave a TG (3 h) of 51.8 mg/dL, a TP (3 h) of 5.3 g/dL and a gamma-GTP (3 h) of 1.2 IU/L. The TERMINAL_BW (6 h) was 212.4 g, the APTT (6 h) was 20.5 s and the Bas (6 h) was 0%. For the same compound, the Eos (6 h) was 1%, the Fbg (6 h) was 217.8 mg/dL and the Hb (6 h) was 13.4 g/dL. It also gave a Ht (6 h) of 37.7%, a Lym (6 h) of 74% and an MCH (6 h) of 21.7 pg. The MCHC (6 h) was 35.4%, the MCV (6 h) was 61.2 fL and the Mono (6 h) was 2.8%. It also gave a Neu (6 h) of 20.6%, a PT (6 h) of 12.5 s and a Plat (6 h) of 112.6 x10_4/uL. The RBC (6 h) was 617 x10_4/ul, the Ret (6 h) was 6.9% and the WBC (6 h) was 73.8 x10_2/uL. The KIDNEY_L (6 h) was 1 g, the KIDNEY_R (6 h) was 1 g and the KIDNEY_TOTAL (6 h) was 1.9 g. The LIVER (6 h) was 9 g, the A/G (6 h) was 1.6 and the ALP (6 h) was 885.4 IU/L. For the same compound, the ALT (6 h) was 31.8 IU/L, the AST (6 h) was 65.8 IU/L and the BUN (6 h) was 8.6 mg/dL. The CRE (6 h) was 0.4 mg/dL, the Ca (6 h) was 10.6 mg/dL and the Cl (6 h) was 104 meq/L. The DBIL (6 h) was 0.072 mg/dL, the GLC (6 h) was 192.4 mg/dL and the IP (6 h) was 8.9 mg/dL. It also gave an LDH (6 h) of 204.2 IU/L, a Na (6 h) of 141 meq/L and a PL (6 h) of 140.4 mg/dL. The RALB (6 h) was 3.4 g/dL, the TBIL (6 h) was 0.1 mg/dL and the TC (6 h) was 73 mg/dL. The TG (6 h) was 50.8 mg/dL, the TP (6 h) was 5.5 g/dL and the gamma-GTP (6 h) was 1.4 IU/L. For the same compound, the TERMINAL_BW (9 h) was 211.3 g, the APTT (9 h) was 16.7 s and the Bas (9 h) was 0%. For the same compound, the Eos (9 h) was 0.8%, the Fbg (9 h) was 222.2 mg/dL and the Hb (9 h) was 13.1 g/dL. The Ht (9 h) was 36.5%, the Lym (9 h) was 78% and the MCH (9 h) was 22 pg. For the same compound, the MCHC (9 h) was 35.9%, the MCV (9 h) was 61.4 fL and the Mono (9 h) was 2.4%. The Neu (9 h) was 17%, the PT (9 h) was 12.4 s and the Plat (9 h) was 112.4 x10_4/uL. For the same compound, the RBC (9 h) was 594.2 x10_4/ul, the Ret (9 h) was 7.3% and the WBC (9 h) was 68.5 x10_2/uL. The KIDNEY_L (9 h) was 1 g, the KIDNEY_R (9 h) was 1 g and the KIDNEY_TOTAL (9 h) was 1.9 g. For the same compound, the LIVER (9 h) was 8.6 g, the A/G (9 h) was 1.6 and the ALP (9 h) was 861.4 IU/L. The ALT (9 h) was 28 IU/L, the AST (9 h) was 59.8 IU/L and the BUN (9 h) was 9.8 mg/dL. The CRE (9 h) was 0.4 mg/dL, the Ca (9 h) was 10.3 mg/dL and the Cl (9 h) was 103.8 meq/L. The DBIL (9 h) was 0.052 mg/dL, the GLC (9 h) was 205.6 mg/dL and the IP (9 h) was 9 mg/dL. It also gave an LDH (9 h) of 150 IU/L, a Na (9 h) of 140 meq/L and a PL (9 h) of 151.4 mg/dL. It also gave an RALB (9 h) of 3.3 g/dL, a TBIL (9 h) of 0.1 mg/dL and a TC (9 h) of 85.2 mg/dL. For the same compound, the TG (9 h) was 27.2 mg/dL, the TP (9 h) was 5.4 g/dL and the gamma-GTP (9 h) was 0.8 IU/L. It also gave a TERMINAL_BW (24 h) of 223.1 g, an APTT (24 h) of 22.2 s and a Bas (24 h) of 0%. For the same compound, the Eos (24 h) was 1%, the Fbg (24 h) was 218.4 mg/dL and the Hb (24 h) was 13.3 g/dL. It also gave a Ht (24 h) of 37.1%, a Lym (24 h) of 77.2% and an MCH (24 h) of 21.8 pg. The MCHC (24 h) was 35.9%, the MCV (24 h) was 60.7 fL and the Mono (24 h) was 2.8%. It also gave a Neu (24 h) of 17.2%, a PT (24 h) of 12.3 s and a Plat (24 h) of 129.4 x10_4/uL. For the same compound, the RBC (24 h) was 612.2 x10_4/ul, the Ret (24 h) was 5.8% and the WBC (24 h) was 77.3 x10_2/uL. For the same compound, the KIDNEY_L (24 h) was 1 g, the KIDNEY_R (24 h) was 1 g and the KIDNEY_TOTAL (24 h) was 2.1 g. The LIVER (24 h) was 9.6 g, the A/G (24 h) was 1.6 and the ALP (24 h) was 1062.2 IU/L. It also gave an ALT (24 h) of 39 IU/L, an AST (24 h) of 65.4 IU/L and a BUN (24 h) of 14.4 mg/dL. For the same compound, the CRE (24 h) was 0.4 mg/dL, the Ca (24 h) was 10.5 mg/dL and the Cl (24 h) was 102.6 meq/L. It also gave a DBIL (24 h) of 0.078 mg/dL, a GLC (24 h) of 199.6 mg/dL and an IP (24 h) of 8.2 mg/dL. For the same compound, the LDH (24 h) was 165 IU/L, the Na (24 h) was 140.2 meq/L and the PL (24 h) was 137.6 mg/dL. The RALB (24 h) was 3.3 g/dL, the TBIL (24 h) was 0.1 mg/dL and the TC (24 h) was 76.2 mg/dL. For the same compound, the TG (24 h) was 67.4 mg/dL, the TP (24 h) was 5.5 g/dL and the gamma-GTP (24 h) was 1 IU/L.
